Experimental data: patent publication US9302999B2, “Substituted triazoles as herbicides” (E. I. DU PONT DE NEMOURS AND COMPANY, priority 2012, dated 2016)
Like-named read-outs stand apart in the source and are kept apart here.

How the values were obtained:
Format in all cases: in vivo
[1] = tested on: barnyardgrass (Echinochloa crus-galli); test: Test A pre-/postemergence: barnyardgrass; settings: for pest or weed control at 125 g/ha / pest or weed control at 500 g/ha: Echinochloa crus-galli, 240 h
In short: (§1)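 Visual 0–100 injury ratings (0 no effect, 100 complete control) taken about ten days after treatment, relative to untreated controls. Preemergence treatment was a directed soil spray; postemergence plants were 2–10 cm tall at one- to two-leaf stage. Soil: loam/sand blend.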

[2] = tested on: morningglory (Ipomoea spp.); test: Test A pre-/postemergence: morningglory
In short: as §1

[3] = tested on: velvetleaf (Abutilon theophrasti); test: Test A pre-/postemergence: velvetleaf; settings: for pest or weed control at 125 g/ha / pest or weed control at 500 g/ha: Abutilon theophrasti, 240 h
In short: as §1

[4] = tested on: barnyardgrass (Echinochloa crus-galli); test: Test B flooded paddy: barnyardgrass; settings: Flood; 250 g ai/ha; applied to paddy water at 2-leaf stage; visually evaluated after 13 to 15 days
In short: (§2)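 Plants were grown to the 2-leaf stage, then pots were flooded to 3 cm above the soil and compounds were applied directly into the paddy water. Water depth was held for the whole test; after 13 to 15 days in a greenhouse, injury was visually rated against untreated controls (0 = no effect, 100 = complete control).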

[5] = tested on: ducksalad (Heteranthera limosa); test: Test B flooded paddy: ducksalad; settings: Flood; 250 g ai/ha; applied to paddy water at 2-leaf stage; visually evaluated after 13 to 15 days
In short: as §2

[6] = tested on: foxtail, giant (giant foxtail, Setaria faberii); test: Test C pre-/postemergence: foxtail, giant
In short: (§3)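 Preemergence on seeds in loam/sand, postemergence on 2–18 cm (1–4-leaf) plants in peat-based medium; compounds in non-phytotoxic solvent with surfactant. After 13–15 days in greenhouse, visual rating versus controls, 0 (no effect) to 100 (complete control).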

[7] = tested on: kochia (Kochia scoparia); test: Test C pre-/postemergence: kochia
In short: as §3

[8] = tested on: soybean (Glycine max); test: Test C pre-/postemergence: soybean
In short: as §3

[9] = tested on: chickweed (common chickweed, Stellaria media); test: Test C postemergence: chickweed
In short: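 Greenhouse pot test; foliar postemergence treatment at 1- to 4-leaf stage. Rated visually at 13 to 15 days on a 0–100 control scale relative to untreated plants.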

[10] = tested on: corn (Zea mays); test: Test C pre-/postemergence: corn
In short: as §3

[11] = tested on: large crabgrass (Digitaria sanguinalis); test: Test C pre-/postemergence: large crabgrass
In short: as §3

[12] = Postemergence, 31 g ai/ha, scale 0 to 100 (0 no effect, 100 complete control)
[13] = Postemergence, 62 g ai/ha, scale 0 to 100 (0 no effect, 100 complete control)
[14] = Postemergence, 125 g ai/ha, scale 0 to 100, 0 no effect, 100 complete control
[15] = Postemergence, 250 g ai/ha, scale 0 to 100
[16] = Preemergence, 31 g ai/ha, scale of 0 to 100, 0 is no effect, 100 is complete control
[17] = Preemergence, 62 g ai/ha, scale of 0 to 100, 0 is no effect, 100 is complete control
[18] = Preemergence, 125 g ai/ha, scale 0 to 100, 0 no effect, 100 complete control
[19] = Preemergence, 250 g ai/ha, scale 0 to 100, 0 no effect, 100 complete control
[20] = Postemergence, 125 g ai/ha, 0 to 100 scale, 0 is no effect, 100 is complete control
[21] = Postemergence, 500 g ai/ha, visual rating on 0 to 100 scale (0 no effect, 100 complete control), approximately ten days
[22] = Preemergence, 125 g ai/ha, 0 to 100 scale where 0 is no effect and 100 is complete control
[23] = Preemergence, 500 g ai/ha, 0 to 100 scale (0 no effect, 100 complete control)
[24] = 31 g ai/ha, scale 0 to 100 (0 no effect, 100 complete control)
[25] = 62 g ai/ha, scale 0 to 100 (0 no effect, 100 complete control)
[26] = 125 g ai/ha, scale 0 to 100, 0 no effect, 100 complete control
[27] = Preemergence, 62 g ai/ha, scale 0 to 100, 0 no effect, 100 complete control
[28] = Postemergence, 1000 g ai/ha, visual rating on 0 to 100 scale (0 no effect, 100 complete control), approximately ten days
[29] = Preemergence, 1000 g ai/ha, 0 to 100 scale, 0 is no effect, 100 is complete control

SMILES: Cc1nn(-c2ccc(F)cc2F)nc1Cc1ccnc(C(F)(F)F)c1 [Compound 54, 4-[[2-(2,4-difluorophenyl)-5-methyl-2H-1,2,3-triazol-4-yl]methyl]-2-(trifluoromethyl)pyridine]
- pest or weed control at 125 g/ha ([1]; post-emergence, Postemergence, 125 g ai/ha, 0 to 100 scale, 0 is no effect, 100 is complete control, read-out: Barnyardgrass plant response rating): 70%
- pest or weed control at 500 g/ha ([1]; post-emergence, Postemergence, 500 g ai/ha, visual rating on 0 to 100 scale (0 no effect, 100 complete control), approximately ten days, read-out: Barnyardgrass plant response rating): 90%
- pest or weed control at 125 g/ha ([1]; pre-emergence, Preemergence, 125 g ai/ha, 0 to 100 scale (0 no effect, 100 complete control), read-out: Plant response rating, Barnyardgrass): 80%
- pest or weed control at 500 g/ha ([1]; pre-emergence, Preemergence, 500 g ai/ha, 0 to 100 scale, 0 is no effect, 100 is complete control, read-out: Plant response rating, Barnyardgrass): 100%
- pest or weed control at 125 g/ha ([2]; Ipomoea, pre-emergence, 240 h, Preemergence, 125 g ai/ha, 0 to 100 scale (0 no effect, 100 complete control), read-out: Plant response rating, Morningglory): 60%
- pest or weed control at 500 g/ha ([2]; Ipomoea, pre-emergence, 240 h, Preemergence, 500 g ai/ha, 0 to 100 scale, 0 is no effect, 100 is complete control, read-out: Plant response rating, Morningglory): 90%
- pest or weed control at 125 g/ha ([3]; post-emergence, Postemergence, 125 g ai/ha, 0 to 100 scale, 0 is no effect, 100 is complete control, read-out: Velvetleaf plant response rating): 90%
- pest or weed control at 500 g/ha ([3]; post-emergence, Postemergence, 500 g ai/ha, visual rating on 0 to 100 scale (0 no effect, 100 complete control), approximately ten days, read-out: Velvetleaf plant response rating): 100%
- pest or weed control at 125 g/ha ([3]; pre-emergence, Preemergence, 125 g ai/ha, 0 to 100 scale (0 no effect, 100 complete control), read-out: Plant response rating, Velvetleaf): 30%
- pest or weed control at 500 g/ha ([3]; pre-emergence, Preemergence, 500 g ai/ha, 0 to 100 scale, 0 is no effect, 100 is complete control, read-out: Plant response rating, Velvetleaf): 60%
- Plant response rating, Barnyardgrass (0 to 100 scale, 0 is no effect, 100 is complete control) [4]: 30
- Plant response rating, Ducksalad (0 to 100 scale, 0 is no effect, 100 is complete control) [5]: 85

SMILES: Cc1nn(-c2ccc(C(F)(F)F)cc2)nc1Oc1ccnc(C(F)(F)F)c1 [Compound 120]
- Plant response rating, Foxtail, Giant [6, 12]: 5
- Plant response rating, Foxtail, Giant [6, 13]: 45
- Plant response rating, Foxtail, Giant [6, 14]: 50
- Plant response rating, Foxtail, Giant [6, 15]: 55
- Plant response rating, Foxtail, Giant [6, 16]: 98
- Plant response rating, Foxtail, Giant [6, 17]: 98
- Plant response rating, Foxtail, Giant [6, 18]: 98
- Plant response rating, Foxtail, Giant [6, 19]: 100
- Barnyardgrass plant response rating [1, 20]: 60
- Barnyardgrass plant response rating [1, 21]: 80
- Plant response rating, Barnyardgrass [1, 22]: 90
- Plant response rating, Barnyardgrass [1, 23]: 100
- Plant response rating, Kochia [7, 12]: 65
- Plant response rating, Kochia [7, 13]: 95
- Plant response rating, Kochia [7, 14]: 98
- Plant response rating, Kochia [7, 15]: 98
- Plant response rating, Kochia [7, 16]: 10
- Plant response rating, Kochia [7, 17]: 90
- Plant response rating, Kochia [7, 18]: 100
- Plant response rating, Kochia [7, 19]: 100
- Plant response rating, Soybean [8, 12]: 25
- Plant response rating, Soybean [8, 13]: 25
- Plant response rating, Soybean [8, 14]: 55
- Plant response rating, Soybean [8, 15]: 100
- Plant response rating, Soybean [8, 16]: 0
- Plant response rating, Soybean [8, 17]: 5
- Plant response rating, Soybean [8, 18]: 10
- Plant response rating, Soybean [8, 19]: 20
- Morningglory plant response rating [2, 20]: 90
- Morningglory plant response rating [2, 21]: 100
- Plant response rating, Morningglory [2, 22]: 10
- Plant response rating, Morningglory [2, 23]: 30
- Plant response rating, Chickweed [9, 24]: 75
- Plant response rating, Chickweed [9, 25]: 100
- Plant response rating, Chickweed [9, 26]: 100
- Plant response rating, Chickweed ([9]; 250 g ai/ha, scale 0 to 100): 100
- Plant response rating, Corn [10, 12]: 5
- Plant response rating, Corn [10, 13]: 10
- Plant response rating, Corn [10, 14]: 10
- Plant response rating, Corn [10, 15]: 10
- Plant response rating, Corn [10, 16]: 0
- Plant response rating, Corn [10, 27]: 5
- Plant response rating, Corn [10, 18]: 25
- Plant response rating, Corn [10, 19]: 50
- Velvetleaf plant response rating [3, 20]: 50
- Velvetleaf plant response rating [3, 21]: 80
- Plant response rating, Velvetleaf [3, 22]: 40
- Plant response rating, Velvetleaf [3, 23]: 70
- Plant response rating, Crabgrass, Large [11, 12]: 5
- Plant response rating, Crabgrass, Large [11, 13]: 25
- Plant response rating, Crabgrass, Large [11, 14]: 25
- Plant response rating, Crabgrass, Large [11, 15]: 45
- Plant response rating, Crabgrass, Large [11, 16]: 100
- Plant response rating, Crabgrass, Large [11, 17]: 100
- Plant response rating, Crabgrass, Large [11, 18]: 100
- Plant response rating, Crabgrass, Large [11, 19]: 100

SMILES: Cc1nn(-c2ccc(C(F)(F)F)cn2)nc1Cc1cccc(C(F)(F)F)c1 [Compound 106]
- Plant response rating, Foxtail, Giant [6, 12]: 40
- Plant response rating, Foxtail, Giant [6, 13]: 40
- Plant response rating, Foxtail, Giant [6, 14]: 55
- Plant response rating, Foxtail, Giant [6, 15]: 55
- Plant response rating, Foxtail, Giant [6, 16]: 65
- Plant response rating, Foxtail, Giant [6, 17]: 85
- Plant response rating, Foxtail, Giant [6, 18]: 100
- Plant response rating, Foxtail, Giant [6, 19]: 100
- Barnyardgrass plant response rating [1, 28]: 40
- Barnyardgrass plant response rating [1, 29]: 50
- Plant response rating, Kochia [7, 12]: 85
- Plant response rating, Kochia [7, 13]: 85
- Plant response rating, Kochia [7, 14]: 85
- Plant response rating, Kochia [7, 15]: 90
- Plant response rating, Kochia [7, 16]: 0
- Plant response rating, Kochia [7, 17]: 0
- Plant response rating, Kochia [7, 18]: 45
- Plant response rating, Kochia [7, 19]: 65
- Plant response rating, Soybean [8, 12]: 10
- Plant response rating, Soybean [8, 13]: 15
- Plant response rating, Soybean [8, 14]: 60
- Plant response rating, Soybean [8, 15]: 65
- Plant response rating, Soybean [8, 16]: 0
- Plant response rating, Soybean [8, 17]: 0
- Plant response rating, Soybean [8, 18]: 5
- Plant response rating, Soybean [8, 19]: 5
- Morningglory plant response rating [2, 28]: 100
- Morningglory plant response rating [2, 29]: 20
- Plant response rating, Chickweed [9, 24]: 60
- Plant response rating, Chickweed [9, 25]: 70
- Plant response rating, Chickweed [9, 26]: 95
- Plant response rating, Chickweed ([9]; 250 g ai/ha, scale 0 to 100): 98
- Plant response rating, Corn [10, 12]: 10
- Plant response rating, Corn [10, 13]: 15
- Plant response rating, Corn [10, 14]: 15
- Plant response rating, Corn [10, 15]: 55
- Plant response rating, Corn [10, 16]: 0
- Plant response rating, Corn [10, 27]: 0
- Plant response rating, Corn [10, 18]: 0
- Plant response rating, Corn [10, 19]: 10
- Velvetleaf plant response rating [3, 28]: 70
- Velvetleaf plant response rating [3, 29]: 0
- Plant response rating, Crabgrass, Large [11, 12]: 40
- Plant response rating, Crabgrass, Large [11, 13]: 55
- Plant response rating, Crabgrass, Large [11, 14]: 65
- Plant response rating, Crabgrass, Large [11, 15]: 65
- Plant response rating, Crabgrass, Large [11, 16]: 100
- Plant response rating, Crabgrass, Large [11, 17]: 100
- Plant response rating, Crabgrass, Large [11, 18]: 100
- Plant response rating, Crabgrass, Large [11, 19]: 100
